# Measured values as given in patent US5821231A, “CS-1 peptidomimetics, compositions and methods of using same” (Cytel Corporation, priority 1995, dated 1998).
# Square brackets hold non-standard residues; d marks the D form. Peptide text beside a SMILES is read from it. * marks the point of attachment. PhAc = O=C(Cc1ccccc1)*
# Columns and labels:
# [1] = test system: New Zealand white rabbits; assay: Rabbit heterotopic cardiac allograft model; type: in vivo
# Text: New Zealand white female rabbits (Charles River Lab., Saint Laurent, Quebec), between 3.5 and 4 kg underwent heterotopic cardiac transplant following an experimental protocol previously described [Alonso et al., Am. J. Pathol., 87:415-442 (1977); Clausell et al., Circulation, 89:2768-2779 (1994)]. The animals were unselected to favor an HLA-mismatch, the host rabbits were Pasteurella-free and the donors, outbred animals. Both host and donor rabbits were fed Purina 5321-0.5 percent cholesterol diet (Research Diets Inc., New Brunswick, N.J.), a strategy that has proven useful in accelerating the process of allograft arteriopathy [Alonso et al., Am, J. Pathol., 87:415-442 (1977)]. The diet was commenced four days prior to the transplant and continued in the recipient of the transplant until the completion of the experimental period.
# The technique of heterotopic cardiac transplantation has been previously described [Clausell et al., Circulation, 89:2768-2779 (1994)]. Briefly, a vertical incision was performed in the anterior aspect of the neck of the recipient rabbit and the left common carotid artery and the ipsilateral external jugular vein were isolated. The cardiac allograft was placed in the neck by anastomosing the aorta end-to-side to the recipient's carotid artery and the pulmonary end-to-side to the recipient's external jugular vein, following a total period of ischemia for the donor hearts of approximately 30 minutes. Postoperative care was in compliance with the Principles of Laboratory Animal Care formulated by the Canadian National Society for Medical Research.
# Beginning the day of the transplant, the animals were randomized and treated with either scrambled compound (control group) at 1 mg/kg s.c. or the inhibitor compound at 1 mg/kg s.c. The doses of the compounds were empirically extrapolated to the in vivo model based on preliminary in vitro studies, of Table 1. No other immunosuppression therapy was administered. The grafts were monitored daily by palpation and maintained for 7 to 8 days, a previously described endpoint that was associated with myocardial rejection (impaired cardiac contractility) and development of the allograft arteriopathy in this model [Clausell et al., Circulation, 89:2768-2779 (1994)]. A total of fourteen animals were studied in the control (n=7) and treated (n=7) groups.
# The animals were sacrificed using a lethal dose of euthanol (480 mg i.v.) (MTC Pharmaceutical, Cambridge, ON), host and donor hearts were removed, and the coronary arteries were perfused with saline through the aorta, followed by light fixation by perfusion with 2 percent paraformaldehyde (Sigma, St, Louis, Mo.). […] Different sections of the hearts were either saved in 10 percent formalin (BDH Inc., Toronto, ON) for light microscopy studies or immediately frozen in O.T.C. Compound Tissue Tek (Miles Inc., Elkart, Ind.) for specific immunohistochemistry studies.
# Three different paraffin-embedded tissue sections from host and donor hearts from both control and treated rabbits were stained by the Movat pentachrome method for light microscopy. Morphometric analysis was performed using a Zeiss microscope attached to a computer-generated video analysis system (Perceptics Inc., NuVision software), as described in Clausell et al., Circulation, 89:2768-2779 (1994). The number of vessels with intimal lesions were counted in all three heart sections from each animal studied and are expressed as a percentage of the total vessel number.
# In the host hearts, 999 vessels in the control group and 1054 vessels in the treated group were analyzed. In the donor hearts, 827 vessels in the control group and 617 vessels in the treated group were analyzed. To determine the severity of intimal thickening, the diameter of each traceable vessel in all three sections was measured and the coronary arteries were categorized as small (diameter <100 μm), medium (diameter >100<500 μm) and large (diameter >500 μm). […]
# VLA-4 = VLA-4 (Homo sapiens, UniProt P05556+P13612); assay: In vitro binding assay: 51Cr-labeled Jurkat cells to solid phase-bound CS-1 compound (SEQ ID NO:1); type: cell-based; parameters: inflammatory cells that contain the VLA-4 receptor [Jurkat cells; host or cells: Jurkat cells (human T lymphoblastic line)
# Procedure: Binding inhibition is measured here as a concentration of compound that inhibits one-half the binding between a standard number of Jurkat cells and a standard amount of CS-1 compound bound to the surface of a microtiter plate well. Those concentrations are conveniently expressed as IC50 values, smaller numbers indicating a lower concentration required to inhibit 50 percent binding and therefore greater potency. Further specifics of this assay are provided hereinafter.
# Jurkat cells (ATCC TIB 152), a human T lymphoblastic line, labeled with ^51 chromium were used to assay in vitro binding inhibition provided by various compounds discussed herein.
# The plates were prepared as follows: The 25-mer CS-1 compound (SEQ ID NO:1) dissolved at 0.5-1 μg/ml in a buffer of 0.1M NaHCO3 at pH 9.5 that also contained 10 μg/ml of bovine serum albumin (BSA) or a conjugate of the CS-1 compound linked to ovalbumin (CS-1-OVA) dissolved at 1-2.5 μg/ml in the same buffer was used as the substrate. Each well of the microtiter plates was coated with 50 μl of substrate or buffer alone for controls. The wells were permitted to dry out completely and were then rinsed twice with PBS at pH 7.4. Non-specific binding sites of each well were then blocked using 200 μl per well of RPMI/1 percent BSA for two hours at room temperature.
# Jurkat cells (3-5×10^6 cells) were placed into a 15 ml Falcon™ round-bottom tube with a cap. The tube was centrifuged, and the extra medium was then removed.
# Two hundred microliters of a ^51 Cr labeling solution were added to the centrifuged cells and maintained in contact with the cells for 90-120 minutes in a warm room. […] Longer contact times provide a greater amount of labeling but lower cell viability.
# The labeled cells are washed with (i) complete medium, (ii) 1 mM EDTA/PBS and then (iii) RPM1/1 percent BSA free of serum components. The cells are centrifuged after each washing. The cells are finally resuspended in serum-free RPMI/1 percent BSA at a concentration of 1×10^6 viable cells/ml, which provides a concentration that is diluted by one-half in the assay.
# Inhibitor compounds are prepared as stock solutions at 20 mg/ml in DMSO in 1.5 ml cryogenic screwcap vials, and were stored at -70° C. Using Flow™ round-bottom or V-bottom microtiter plates, the inhibitor compounds were prepared at twice the assay concentration in RPMI/1 percent BSA at 60 μl/well.
# Four initial dilutions were typically used.
# The ^51 Cr-labeled cells ([…] at 60 μl/well) were then admixed with the diluted compound solutions. The admixtures were maintained at room temperature (about 22° C.) for 30 minutes.
# One hundred microliters of each inhibitor compound/cell admixture were transferred to the substrate-coated wells. This was done in triplicate for each dilution. The resulting plates were incubated for 30 minutes at 37° C. and then washed gently three times with RPMI/1 percent BSA at 200 μl/well. Binding was observed microscopically, particularly after the second wash.
# The bound cells were then lysed by the addition of a 0.5 percent solution of sodium dodecylsulfate in water at 100 μl/well. The resulting solutions were then processed for counting and calculation of IC50 values following usual procedures.
# The data of Table 1 are normalized to the binding of SEQ ID NO: 3. […] Multiple assays for the same compound were averaged.
# Sequence of VLA-4 (P13612 34-1032): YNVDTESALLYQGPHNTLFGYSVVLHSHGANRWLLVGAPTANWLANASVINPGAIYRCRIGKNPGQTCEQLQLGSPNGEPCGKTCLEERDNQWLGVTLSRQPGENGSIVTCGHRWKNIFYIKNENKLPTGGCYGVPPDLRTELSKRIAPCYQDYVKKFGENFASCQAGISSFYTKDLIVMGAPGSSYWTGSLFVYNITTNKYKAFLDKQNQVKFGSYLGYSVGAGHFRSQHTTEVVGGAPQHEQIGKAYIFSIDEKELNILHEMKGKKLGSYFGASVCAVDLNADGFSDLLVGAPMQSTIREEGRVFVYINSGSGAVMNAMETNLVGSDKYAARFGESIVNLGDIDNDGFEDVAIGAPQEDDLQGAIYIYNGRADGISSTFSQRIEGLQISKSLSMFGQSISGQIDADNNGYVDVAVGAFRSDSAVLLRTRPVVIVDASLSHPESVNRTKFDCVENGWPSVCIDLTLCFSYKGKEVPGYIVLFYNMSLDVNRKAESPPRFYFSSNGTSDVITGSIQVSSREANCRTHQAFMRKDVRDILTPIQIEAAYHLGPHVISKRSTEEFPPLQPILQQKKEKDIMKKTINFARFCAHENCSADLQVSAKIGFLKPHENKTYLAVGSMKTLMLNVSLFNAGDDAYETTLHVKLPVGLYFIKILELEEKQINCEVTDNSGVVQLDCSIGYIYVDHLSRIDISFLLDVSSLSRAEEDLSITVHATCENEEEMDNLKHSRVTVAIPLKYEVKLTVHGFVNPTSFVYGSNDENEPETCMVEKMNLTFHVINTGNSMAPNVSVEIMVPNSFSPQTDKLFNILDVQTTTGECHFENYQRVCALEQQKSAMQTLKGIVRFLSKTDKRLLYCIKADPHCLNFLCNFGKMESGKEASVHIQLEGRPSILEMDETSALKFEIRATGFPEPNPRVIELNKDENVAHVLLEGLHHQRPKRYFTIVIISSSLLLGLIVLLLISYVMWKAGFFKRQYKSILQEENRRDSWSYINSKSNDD
# Sequence of VLA-4 (P05556 21-798): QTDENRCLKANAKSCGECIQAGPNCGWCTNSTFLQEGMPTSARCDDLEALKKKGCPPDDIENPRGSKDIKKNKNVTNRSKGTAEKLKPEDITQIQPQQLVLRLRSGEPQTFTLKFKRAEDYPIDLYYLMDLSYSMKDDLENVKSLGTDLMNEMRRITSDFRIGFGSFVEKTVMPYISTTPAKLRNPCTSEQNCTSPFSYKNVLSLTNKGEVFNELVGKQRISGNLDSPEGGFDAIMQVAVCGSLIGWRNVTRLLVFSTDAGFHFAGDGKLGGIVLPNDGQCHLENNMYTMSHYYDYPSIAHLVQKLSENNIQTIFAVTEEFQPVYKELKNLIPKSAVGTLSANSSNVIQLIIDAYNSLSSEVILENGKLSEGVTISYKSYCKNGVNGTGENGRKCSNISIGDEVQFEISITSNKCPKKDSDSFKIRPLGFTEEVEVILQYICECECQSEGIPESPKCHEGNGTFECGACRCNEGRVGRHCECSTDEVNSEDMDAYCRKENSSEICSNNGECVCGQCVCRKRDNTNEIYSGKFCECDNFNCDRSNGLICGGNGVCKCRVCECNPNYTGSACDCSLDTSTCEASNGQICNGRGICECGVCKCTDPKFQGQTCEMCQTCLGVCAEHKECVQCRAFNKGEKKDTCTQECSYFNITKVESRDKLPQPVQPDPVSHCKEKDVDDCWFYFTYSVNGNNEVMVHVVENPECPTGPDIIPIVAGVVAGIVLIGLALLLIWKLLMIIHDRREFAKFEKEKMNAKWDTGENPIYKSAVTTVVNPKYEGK
smiles,measurement,setting,value
"CC(C)C[C@H](NC(=O)[C@H](CC(=O)O)NC(=O)Cc1ccccc1)C(=O)N[C@@H](Cc1ccccc1)C(=O)N1CCC[C@@H]1C(N)=O [N-phenylacetyl-Asp-Leu-Phe-D-Pro-NH2, reference compound] (PhAc-DLF[dP]-NH2)",Vessel Intimal Thickening: Percent of Vessels,"[1]; donor heart, 1 mg/kg s.c.",88%
same,Vessel Intimal Thickening: Severity (Percent of Vessel area),"[1]; donor heart, 1 mg/kg s.c.",36%
same,Baseline of incidence of intimal thickening,[1]; rabbit own host heart,1%
same,Baseline of severity of intimal thickening,[1]; rabbit own host heart,12%
same,Relative Potency,"VLA-4; binding inhibition potency (IC50) relative to standard compound of SEQ ID NO:3 = 1, about one-tenth or less assigned zero",0
same,VLA-4 binding inhibition (in words),VLA-4; compared with standard 10-mer of SEQ ID NO:3 or other peptides,no inhibition of VLA-4
